Reference: US20090299044A1 (priority 2006, published 2009)
Bridge positions count the residues as written; N and C are the ends. Square brackets hold non-standard residues; d marks the D form. Peptide text beside a SMILES is read from it. 1Nal = N[C@@H](Cc1cccc2ccccc12)C(=O)O

Columns and labels:
human Kv1.3 (CHO) = target: T1, human Kv1.3 (CHO) (Homo sapiens, UniProt P22001); assay: cell-based
T1 construct: expressed in transfected cells; host or cells: CHO

human Kv1.1 (HEK293) = target: T2, human Kv1.1 (HEK293) (Homo sapiens, UniProt Q09470); assay: cell-based
T2 construct: expressed in transfected cells; host or cells: HEK293
T2 sequence (Q09470 whole entry): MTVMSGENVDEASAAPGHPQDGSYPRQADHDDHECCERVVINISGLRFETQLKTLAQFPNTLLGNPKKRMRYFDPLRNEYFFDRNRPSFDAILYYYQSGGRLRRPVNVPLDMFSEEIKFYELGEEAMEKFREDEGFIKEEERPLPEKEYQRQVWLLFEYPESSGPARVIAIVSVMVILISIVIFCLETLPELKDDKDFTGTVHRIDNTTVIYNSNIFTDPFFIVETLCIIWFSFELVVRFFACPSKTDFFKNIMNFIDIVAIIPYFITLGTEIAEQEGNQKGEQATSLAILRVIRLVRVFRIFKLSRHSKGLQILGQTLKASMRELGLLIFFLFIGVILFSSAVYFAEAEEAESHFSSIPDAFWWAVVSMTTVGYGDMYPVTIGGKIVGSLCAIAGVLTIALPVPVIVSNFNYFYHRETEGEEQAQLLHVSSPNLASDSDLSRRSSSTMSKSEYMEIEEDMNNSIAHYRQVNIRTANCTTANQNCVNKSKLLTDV

T1 sequence (P22001 whole entry): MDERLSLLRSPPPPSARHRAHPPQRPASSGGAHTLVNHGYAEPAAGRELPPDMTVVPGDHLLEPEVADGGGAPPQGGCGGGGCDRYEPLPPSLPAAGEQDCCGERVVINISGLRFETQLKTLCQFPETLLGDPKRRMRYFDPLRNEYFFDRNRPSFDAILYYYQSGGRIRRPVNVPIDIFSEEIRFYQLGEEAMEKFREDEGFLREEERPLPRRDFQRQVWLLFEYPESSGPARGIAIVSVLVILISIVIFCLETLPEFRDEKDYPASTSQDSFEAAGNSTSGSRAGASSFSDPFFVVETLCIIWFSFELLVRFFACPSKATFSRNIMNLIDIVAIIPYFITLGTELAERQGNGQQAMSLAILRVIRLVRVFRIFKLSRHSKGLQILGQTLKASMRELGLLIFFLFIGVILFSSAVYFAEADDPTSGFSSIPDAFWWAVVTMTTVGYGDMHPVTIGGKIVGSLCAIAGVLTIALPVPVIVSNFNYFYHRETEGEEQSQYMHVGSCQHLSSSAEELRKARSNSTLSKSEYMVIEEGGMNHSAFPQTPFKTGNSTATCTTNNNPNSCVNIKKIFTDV

Structure (SMILES) | IC50 (human Kv1.3 (CHO)) | IC50 (human Kv1.1 (HEK293))
CC[C@H](C)[C@@H]1NC(=O)[C@H](CCCCN)NC(=O)[C@@H](NC(=O)[C@H](CCCCN)NC(=O)[C@@H](NC(=O)[C@H](CC(N)=O)NC(=O)[C@@H](NC(=O)[C@@H](NC(=O)[C@@H](NC(=O)CN)C(C)C)[C@@H](C)CC)[C@@H](C)CC)C(C)C)CSSC[C@@H]2NC(=O)[C@H](CCCCN)NC(=O)CNC(=O)[C@H](Cc3ccccc3)NC(=O)[C@H](CCCNC(=N)N)NC(=O)[C@H](CCSC)NC(=O)CNC(=O)[C@H](C)NC(=O)[C@H](CCCCN)NC(=O)[C@H](CCCCN)NC(=O)[C@@H]3CSSC[C@@H](C(=O)N[C@H](C(=O)N4CCC[C@H]4C(=O)N[C@@H](CCCNC(=N)N)C(=O)O)[C@@H](C)O)NC(=O)[C@H](Cc4c[nH]cn4)NC(=O)[C@H](CSSC[C@H](NC(=O)[C@H](CCC(N)=O)NC(=O)[C@H](CCCNC(=N)N)NC(=O)[C@H](CO)NC1=O)C(=O)N[C@@H](CC(C)C)C(=O)N[C@@H](CCC(=O)O)C(=O)N1CCC[C@H]1C(=O)N3)NC(=O)[C@H](CCCCN)NC(=O)CNC(=O)[C@H](CC(N)=O)NC(=O)[C@H](CCSC)NC2=O [K38R] (H-GVIINVKCKISRQCLEPCKKAGMRFGKCMNGKCHCTPR-OH; disulfide 8-28, 14-33, 18-35) | 0.015 nM | 0.00184 nM
CC[C@H](C)[C@@H]1NC(=O)[C@H](CCCCN)NC(=O)[C@@H](NC(=O)[C@H](CCCCN)NC(=O)[C@@H](NC(=O)[C@H](CC(N)=O)NC(=O)[C@@H](NC(=O)[C@@H](NC(=O)[C@@H](NC(=O)CN)C(C)C)[C@@H](C)CC)[C@@H](C)CC)C(C)C)CSSC[C@@H]2NC(=O)[C@H](CCCCN)NC(=O)CNC(=O)[C@H](Cc3ccccc3)NC(=O)[C@H](CCCNC(=N)N)NC(=O)[C@H](CCSC)NC(=O)CNC(=O)[C@H](C)NC(=O)[C@H](CCCCN)NC(=O)[C@H](CCCCN)NC(=O)[C@@H]3CSSC[C@@H](C(=O)N[C@H](C(=O)N4CCC[C@H]4C(=O)N[C@@H](CCCCN)C(=O)O)[C@@H](C)O)NC(=O)[C@H](Cc4c[nH]cn4)NC(=O)[C@H](CSSC[C@H](NC(=O)[C@H](CCC(N)=O)NC(=O)[C@H](CCCNC(=N)N)NC(=O)[C@H](CO)NC1=O)C(=O)N[C@@H](C)C(=O)N[C@@H](CCC(=O)O)C(=O)N1CCC[C@H]1C(=O)N3)NC(=O)[C@H](CCCCN)NC(=O)CNC(=O)[C@H](CC(N)=O)NC(=O)[C@H](CCSC)NC2=O [L15A] (H-GVIINVKCKISRQCAEPCKKAGMRFGKCMNGKCHCTPK-OH; disulfide 8-28, 14-33, 18-35) | 0.0431 nM | 0.015 nM
CC[C@H](C)[C@@H]1NC(=O)[C@H](CCCCN)NC(=O)[C@@H](NC(=O)[C@H](CCCCN)NC(=O)[C@@H](NC(=O)[C@H](CC(N)=O)NC(=O)[C@@H](NC(=O)[C@@H](NC(=O)[C@@H](NC(=O)CN)C(C)C)[C@@H](C)CC)[C@@H](C)CC)C(C)C)CSSC[C@@H]2NC(=O)[C@H](CCCCN)NC(=O)CNC(=O)[C@H](Cc3ccccc3)NC(=O)[C@H](CCCNC(=N)N)NC(=O)[C@H](CCSC)NC(=O)CNC(=O)[C@H](C)NC(=O)[C@H](CCCCN)NC(=O)[C@H](CCCCN)NC(=O)[C@@H]3CSSC[C@@H](C(=O)N[C@H](C(=O)N4CCC[C@H]4C(=O)N[C@@H](CCCCN)C(=O)O)[C@@H](C)O)NC(=O)[C@H](Cc4c[nH]cn4)NC(=O)[C@H](CSSC[C@H](NC(=O)[C@H](CCC(N)=O)NC(=O)[C@H](CCCNC(=N)N)NC(=O)[C@H](CO)NC1=O)C(=O)N[C@@H](Cc1cccc4ccccc14)C(=O)N[C@@H](CCC(=O)O)C(=O)N1CCC[C@H]1C(=O)N3)NC(=O)[C@H](CCCCN)NC(=O)CNC(=O)[C@H](CC(N)=O)NC(=O)[C@H](CCSC)NC2=O [L15Nal] (H-GVIINVKCKISRQC[1Nal]EPCKKAGMRFGKCMNGKCHCTPK-OH; disulfide 8-28, 14-33, 18-35) | 0.0178 nM | < 0.00152 nM
CC[C@H](C)[C@@H]1NC(=O)[C@H](CCCCN)NC(=O)[C@@H](NC(=O)[C@H](CCCCN)NC(=O)[C@@H](NC(=O)[C@H](CC(N)=O)NC(=O)[C@@H](NC(=O)[C@@H](NC(=O)[C@@H](NC(=O)CN)C(C)C)[C@@H](C)CC)[C@@H](C)CC)C(C)C)CSSC[C@@H]2NC(=O)[C@H](CCCCN)NC(=O)CNC(=O)[C@H](Cc3ccccc3)NC(=O)[C@H](CCCNC(=N)N)NC(=O)[C@H](CCSC)NC(=O)CNC(=O)[C@H](C)NC(=O)[C@H](CCCCN)NC(=O)[C@H](CCCCN)NC(=O)[C@@H]3CSSC[C@@H](C(=O)N[C@H](C(=O)N4CCC[C@H]4C(=O)N[C@@H](CCCCN)C(=O)O)[C@@H](C)O)NC(=O)[C@H](Cc4c[nH]cn4)NC(=O)[C@H](CSSC[C@H](NC(=O)[C@H](CCC(N)=O)NC(=O)[C@H](CCCNC(=N)N)NC(=O)[C@H](CO)NC1=O)C(=O)N[C@@H](CCCNC(=N)N)C(=O)N[C@@H](CCC(=O)O)C(=O)N1CCC[C@H]1C(=O)N3)NC(=O)[C@H](CCCCN)NC(=O)CNC(=O)[C@H](CC(N)=O)NC(=O)[C@H](CCSC)NC2=O [L15R] (H-GVIINVKCKISRQCREPCKKAGMRFGKCMNGKCHCTPK-OH; disulfide 8-28, 14-33, 18-35) | 0.0137 nM | 0.00216 nM
CC[C@H](C)[C@@H]1NC(=O)[C@H](CCCCN)NC(=O)[C@@H](NC(=O)[C@H](CCCCN)NC(=O)[C@@H](NC(=O)[C@H](CC(N)=O)NC(=O)[C@@H](NC(=O)[C@@H](NC(=O)[C@@H](NC(=O)CN)C(C)C)[C@@H](C)CC)[C@@H](C)CC)C(C)C)CSSC[C@@H]2NC(=O)[C@H](CCCCN)NC(=O)CNC(=O)[C@H](Cc3ccccc3)NC(=O)[C@H](CCCNC(=N)N)NC(=O)[C@H](C)NC(=O)CNC(=O)[C@H](C)NC(=O)[C@H](CCCCN)NC(=O)[C@H](CCCCN)NC(=O)[C@@H]3CSSC[C@@H](C(=O)N[C@H](C(=O)N4CCC[C@H]4C(=O)N[C@@H](CCCCN)C(=O)O)[C@@H](C)O)NC(=O)[C@H](Cc4c[nH]cn4)NC(=O)[C@H](CSSC[C@H](NC(=O)[C@H](CCC(N)=O)NC(=O)[C@H](CCCNC(=N)N)NC(=O)[C@H](CO)NC1=O)C(=O)N[C@@H](CC(C)C)C(=O)N[C@@H](CCC(=O)O)C(=O)N1CCC[C@H]1C(=O)N3)NC(=O)[C@H](CCCCN)NC(=O)CNC(=O)[C@H](CC(N)=O)NC(=O)[C@H](CCSC)NC2=O [M23A] (H-GVIINVKCKISRQCLEPCKKAGARFGKCMNGKCHCTPK-OH; disulfide 8-28, 14-33, 18-35) | 0.0714 nM | 0.0386 nM
CC[C@H](C)[C@@H]1NC(=O)[C@H](CCCCN)NC(=O)[C@@H](NC(=O)[C@H](CCCCN)NC(=O)[C@@H](NC(=O)[C@H](CC(N)=O)NC(=O)[C@@H](NC(=O)[C@@H](NC(=O)[C@@H](NC(=O)CN)C(C)C)[C@@H](C)CC)[C@@H](C)CC)C(C)C)CSSC[C@@H]2NC(=O)[C@H](CCCCN)NC(=O)CNC(=O)[C@H](Cc3ccccc3)NC(=O)[C@H](CCCNC(=N)N)NC(=O)[C@H](CCC(=O)O)NC(=O)CNC(=O)[C@H](C)NC(=O)[C@H](CCCCN)NC(=O)[C@H](CCCCN)NC(=O)[C@@H]3CSSC[C@@H](C(=O)N[C@H](C(=O)N4CCC[C@H]4C(=O)N[C@@H](CCCCN)C(=O)O)[C@@H](C)O)NC(=O)[C@H](Cc4c[nH]cn4)NC(=O)[C@H](CSSC[C@H](NC(=O)[C@H](CCC(N)=O)NC(=O)[C@H](CCCNC(=N)N)NC(=O)[C@H](CO)NC1=O)C(=O)N[C@@H](CC(C)C)C(=O)N[C@@H](CCC(=O)O)C(=O)N1CCC[C@H]1C(=O)N3)NC(=O)[C@H](CCCCN)NC(=O)CNC(=O)[C@H](CC(N)=O)NC(=O)[C@H](CCSC)NC2=O [M23E] (H-GVIINVKCKISRQCLEPCKKAGERFGKCMNGKCHCTPK-OH; disulfide 8-28, 14-33, 18-35) | 0.0243 nM | 0.0104 nM
CC[C@H](C)[C@@H]1NC(=O)[C@H](CCCCN)NC(=O)[C@@H](NC(=O)[C@H](CCCCN)NC(=O)[C@@H](NC(=O)[C@H](CC(N)=O)NC(=O)[C@@H](NC(=O)[C@@H](NC(=O)[C@@H](NC(=O)CN)C(C)C)[C@@H](C)CC)[C@@H](C)CC)C(C)C)CSSC[C@@H]2NC(=O)[C@H](CCCCN)NC(=O)CNC(=O)[C@H](Cc3ccccc3)NC(=O)[C@H](CCCNC(=N)N)NC(=O)[C@H](CCCNC(=N)N)NC(=O)CNC(=O)[C@H](C)NC(=O)[C@H](CCCCN)NC(=O)[C@H](CCCCN)NC(=O)[C@@H]3CSSC[C@@H](C(=O)N[C@H](C(=O)N4CCC[C@H]4C(=O)N[C@@H](CCCCN)C(=O)O)[C@@H](C)O)NC(=O)[C@H](Cc4c[nH]cn4)NC(=O)[C@H](CSSC[C@H](NC(=O)[C@H](CCC(N)=O)NC(=O)[C@H](CCCNC(=N)N)NC(=O)[C@H](CO)NC1=O)C(=O)N[C@@H](CC(C)C)C(=O)N[C@@H](CCC(=O)O)C(=O)N1CCC[C@H]1C(=O)N3)NC(=O)[C@H](CCCCN)NC(=O)CNC(=O)[C@H](CC(N)=O)NC(=O)[C@H](CCSC)NC2=O [M23R] (H-GVIINVKCKISRQCLEPCKKAGRRFGKCMNGKCHCTPK-OH; disulfide 8-28, 14-33, 18-35) | 0.0123 nM | 0.00201 nM
CC[C@H](C)[C@@H]1NC(=O)[C@H](CCCCN)NC(=O)[C@@H](NC(=O)[C@H](CCCCN)NC(=O)[C@@H](NC(=O)[C@H](CC(N)=O)NC(=O)[C@@H](NC(=O)[C@@H](NC(=O)[C@@H](NC(=O)CN)C(C)C)[C@@H](C)CC)[C@@H](C)CC)C(C)C)CSSC[C@@H]2NC(=O)[C@H](CCCCN)NC(=O)CNC(=O)[C@H](Cc3ccccc3)NC(=O)[C@H](CCCNC(=N)N)NC(=O)[C@H](CCSC)NC(=O)CNC(=O)[C@H](C)NC(=O)[C@H](CCCCN)NC(=O)[C@H](CCCCN)NC(=O)[C@@H]3CSSC[C@@H](C(=O)N[C@H](C(=O)N4CCC[C@H]4C(=O)N[C@@H](CCCCN)C(=O)O)[C@@H](C)O)NC(=O)[C@H](Cc4c[nH]cn4)NC(=O)[C@H](CSSC[C@H](NC(=O)[C@H](CCC(N)=O)NC(=O)[C@H](CCCNC(=N)N)NC(=O)[C@H](CO)NC1=O)C(=O)N[C@@H](CC(C)C)C(=O)N[C@@H](CCC(=O)O)C(=O)N1CCC[C@H]1C(=O)N3)NC(=O)[C@H](CCCCN)NC(=O)CNC(=O)[C@H](CC(N)=O)NC(=O)[C@H](CCC(=O)O)NC2=O [M29E] (H-GVIINVKCKISRQCLEPCKKAGMRFGKCENGKCHCTPK-OH; disulfide 8-28, 14-33, 18-35) | > 3.33 nM | > 3.33 nM
